# Test results: US20230095021A1, “MODULATORS OF TDP-43” (Alteron Therapeutics, Inc., priority 2019, published 2023)
# Assays:
# Assay type in all cases: cell-based
# LAMP2 pre-mRNA = LAMP2 pre-mRNA alternative splicing, RT-PCR; settings: MDA-MB-231 cells, 6 μM ALT-59
# Procedure: (§1) Long stretches of TG repeats are found in exon 9 and intron 9 of Lamp2 gene. A shorter stretch is located in intron 10. […] RT-PCR analysis was performed to test if ALT-59 treatment affects LAMP2 alternative splicing. MDA-MB-231 cells were cultured as described above and treated with DMSO or 6 μM ALT-59. Total RNA was extracted using the RNeasy Mini Kit (Qiagen) and equal amount of RNA was reverse transcribed using the SuperScript III First-Strand Synthesis System (Invitrogen). PCR reactions were performed using forward primer located on exon 1 and a reverse primer located on exon 11. PCR samples were resolved in a 1.2% agarose gel and stained with ethidium bromide.
# CFTR exon 9 = CFTR exon 9 splicing, RT-PCR; settings: MDA-MB-231 cells
# Procedure: as §1
# It has been reported that TDP-43 causes CFTR exon 9 skipping, ApoA2 exon 3 skipping, and POLDIP3 exon 3 inclusion. Additional experiments were performed to further confirm that TDP-43 is the target of ALT-59. RT-PCR analysis was performed as described above using the following primers for the three genes. PCR samples were analyzed by polyacrylamide gel electrophoresis and stained with ethidium bromide.
# CFTR = CFTR localization, immunofluorescence microscopy, U-87 MG cells; settings: 4 μM, 3 days
# Procedure: MDA-MB-231 and U-87 MG cells were cultured on cover slips under the conditions as described above. Cells were treated with DMSO or 4 μM ALT-59 for 3 days. Primary human bronchial epithelial cells isolated from cystic fibrosis patient homozygous for Phe508del-CFTR (Lifeline Cell Technology) were cultured on cover slips in BronchiaLife Cell Culture Medium supplemented with BrochiaLife LifeFactors Kit (Lifeline Cell Technology) and maintained at 37° C. in a CO2 incubator. Cells were treated with DMSO, 4 μM ALT-59, 2 μM ALT-308, or 4 μM ALT-410 for 3 days.
# Cells were fixed in 4% paraformaldehyde for 15 minutes and permeabilized in 0.1% Triton X-100 for 2 minutes. After being blocked in 5% BSA (Sigma-Aldrich), cells were incubated with anti-CFTR antibody (Alomone Labs) followed by Alexa Fluor 488 anti-rabbit secondary antibody. Reagents were buffered in GIBCO PBS (Phosphate-Buffered Saline). Images were taken using Carl Zeiss LSM 510 Laser Scanning Microscope. Parameters were set identical for all images.
smiles,measurement,setting,value
"CN(C)c1ccc(C2Nc3ccc4ccccc4c3C3=C2C(=O)CC(C)(C)C3)cc1Br (stereo not shown) [ALT-59, 5-(3-bromo-4-(dimethylamino)phenyl)-2,2-dimethyl-2,3,5,6-tetrahydrobenzo[a]phenanthridin-4(1H)-one]",level of LAMP2a mRNA,LAMP2 pre-mRNA,reduces the level of LAMP2a mRNA
same,level of LAMP2c mRNA,LAMP2 pre-mRNA,increases the level of LAMP2c mRNA
same,CFTR exon 9 inclusion,CFTR exon 9,capable of promoting CFTR exon 9 inclusion
same,CFTR localization,CFTR,redistribution of CFTR from the perinuclear region to the plasma membrane
